These results are taken from patent US8883680B2, “Herbicide combinations with particular sulphonyl ureas” (Bayer Cropscience AG, priority 2006, dated 2014).

Type in all cases: in vivo
One experiment concerns Lamium amplexicaule. Description: Herbicidal action against weeds (greenhouse trials), post-emergence. Conditions: 672 h, 2- to 3-leaf stage, scored visually approx. 4 weeks after application. Here is the method:
(§1) The seeds or rhizome pieces of typical harmful plants were placed into sandy loam soil in round pots, size 13, covered with soil and grown in a greenhouse under good growth conditions. After the harmful plants had emerged, they were treated, as a rule at the 2- to 3-leaf stage, with various dosages of the compositions according to the invention at a water application rate of 100 to 400 I/ha (converted).
(§2) After the treatment (approx. 4 weeks after application), the herbidical activity of the active compounds or active compound mixtures was scored visually by comparing the treated plants with untreated controls. Damage and development of all above-ground parts of the plants was recorded. Scoring was done on a percentage scale (100% action=all plants dead; 50% action=50% of the plants and green plant parts dead; 0% action=no discernible action).
(§3) The results are listed in the tables below, where the activity measured for the independent use of the active compounds (A) and (B) is stated in brackets.

In another experiment the test system is Veronica persica. The description is as above. The following applies: 672 h, 2- to 3-leaf stage, scored visually approx. 4 weeks after application. Here is the method:
as §1, §2, §3

The subject of the next experiment is Acacia farnesiana. The experiment can be described thus: Herbicidal action against woody shrub weeds (greenhouse trials). The following applies: Vachellia farnesiana, 672 h. On the procedure: as §1, §2, §3
(§4) The plants were cultivated to the 5- to 6-leaf stage. Herbicide application and scoring of the trial were carried out as in Example 1.

The next experiment relates to Mimosa pigra. Described as above. The following applies: 672 h. On the procedure:
as §1, §2, §3, §4

The mark [1] stands for this setting: application rate 40 g of ai/ha, 5- to 6-leaf stage, scored visually approx. 4 weeks after application.

With `COc1cc(OC)nc(NC(=O)NS(=O)(=O)N(C)S(C)(=O)=O)n1` [Amidosulfuron, 1-(4,6-dimethoxypyrimidin-2-yl)-3-mesyl(methyl)sulfamoylurea], the inhibition at 20 g/ha in the experiment with Lamium amplexicaule (application rate 20 g of ai/ha) was found to be 18%; in the experiment with Veronica persica (application rate 20 g of ai/ha), 20%. Moreover, the inhibition at 40 g/ha came out at 43% with Acacia farnesiana (setting [1]) and 20% in the experiment with Mimosa pigra (setting [1]).

For the compound `Nc1c(Cl)c(Cl)nc(C(=O)O)c1Cl` [Picloram, 4-amino-3,5,6-trichloropyridine-2-carboxylic acid], the results for the inhibition at 60 g/ha in the experiment on Lamium amplexicaule (application rate 60 g of ai/ha) and with Veronica persica (application rate 60 g of ai/ha) were 75% and 62%, respectively.

On to `Nc1cc(Cl)nc(C(=O)O)c1Cl` [Aminopyralid, 4-amino-3,6-dichloropyridine-2-carboxylic acid], for which the inhibition at 60 g/ha amounted to 55% with Acacia farnesiana (read-out: Acacia farnesiana % activity) and 73% in the experiment on Mimosa pigra (read-out: Mimosa pigra % activity).
